In US20040229791A1, “Compositions and methods of modulating TGF-beta activity by fatty acids” (priority 2002, published 2004):

Columns and labels:
[1] = biological target: T1, TGF-β1-α2M* complex (Homo sapiens, UniProt P01023); assay: Inhibition of 125I-TGF-β1 and α2M* complex formation (5% non-denaturing PAGE, autoradiography); type: binding; conditions: for IC50: ~1 nM 125I-TGF-β1, 10 μg α2M* in 0.05 ml, 30 min room temperature, non-denaturing PAGE, read-out: IC50 for inhibiting complex formation between TGF-β1 and α2M*
T1 construct: was purified from pooled citrate-treate human plasma; from tissue; host or cells: pooled citrate-treated human plasma
T1 sequence (P01023 24-1474): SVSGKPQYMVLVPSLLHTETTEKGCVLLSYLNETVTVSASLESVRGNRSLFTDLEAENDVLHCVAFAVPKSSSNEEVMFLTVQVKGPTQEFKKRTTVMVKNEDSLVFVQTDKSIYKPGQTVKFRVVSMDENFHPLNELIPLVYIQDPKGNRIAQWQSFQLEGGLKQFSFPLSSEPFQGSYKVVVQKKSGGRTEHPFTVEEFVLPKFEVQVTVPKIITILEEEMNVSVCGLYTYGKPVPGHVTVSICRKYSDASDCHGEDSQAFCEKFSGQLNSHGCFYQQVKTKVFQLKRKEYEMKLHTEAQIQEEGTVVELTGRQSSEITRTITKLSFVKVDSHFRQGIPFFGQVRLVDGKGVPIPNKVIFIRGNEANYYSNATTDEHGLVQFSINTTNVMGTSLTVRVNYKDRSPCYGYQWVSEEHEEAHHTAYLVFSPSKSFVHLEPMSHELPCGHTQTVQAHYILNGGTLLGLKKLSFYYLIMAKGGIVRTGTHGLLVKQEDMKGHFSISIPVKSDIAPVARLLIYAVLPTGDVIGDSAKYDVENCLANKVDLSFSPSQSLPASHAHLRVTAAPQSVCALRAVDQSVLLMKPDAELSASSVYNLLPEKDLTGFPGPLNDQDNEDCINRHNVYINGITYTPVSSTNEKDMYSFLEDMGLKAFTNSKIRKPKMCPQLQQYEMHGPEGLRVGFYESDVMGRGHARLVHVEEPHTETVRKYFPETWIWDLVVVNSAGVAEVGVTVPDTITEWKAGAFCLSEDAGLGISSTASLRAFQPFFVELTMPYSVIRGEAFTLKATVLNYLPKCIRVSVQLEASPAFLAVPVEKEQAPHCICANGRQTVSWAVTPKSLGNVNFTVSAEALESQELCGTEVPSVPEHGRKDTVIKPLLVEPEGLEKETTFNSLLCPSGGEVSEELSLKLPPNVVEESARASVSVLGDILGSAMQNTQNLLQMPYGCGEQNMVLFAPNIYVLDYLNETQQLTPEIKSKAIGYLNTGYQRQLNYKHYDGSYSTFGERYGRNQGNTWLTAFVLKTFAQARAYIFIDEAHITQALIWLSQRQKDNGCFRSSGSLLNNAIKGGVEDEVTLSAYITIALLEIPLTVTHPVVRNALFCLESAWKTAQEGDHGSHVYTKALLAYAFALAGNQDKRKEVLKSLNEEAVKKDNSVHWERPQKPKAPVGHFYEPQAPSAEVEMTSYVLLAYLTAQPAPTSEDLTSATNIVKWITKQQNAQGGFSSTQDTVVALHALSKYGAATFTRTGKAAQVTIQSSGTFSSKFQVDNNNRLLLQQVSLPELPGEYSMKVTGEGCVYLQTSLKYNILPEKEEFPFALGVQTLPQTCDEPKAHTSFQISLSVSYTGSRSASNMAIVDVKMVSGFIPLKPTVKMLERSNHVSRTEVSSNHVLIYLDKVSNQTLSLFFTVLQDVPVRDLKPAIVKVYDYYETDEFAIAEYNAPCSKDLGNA
Description: Saturated and unsaturated fatty acids are present in plasma and tissues (25,26). The effects of various concentrations of saturated fatty acids on the formation of complexes between ^125I-TGF ? β1 and ? 2M* were examined. ^125I-TGF- ? 1 (1 nM) was incubated μg/ml) in the presence of various concentrations of n-caprylic acid ([…]), lauric acid (12 carbon atoms), myristic acid (14 carbon atoms), palmitic acid (16 carbon atoms) and stearic acid (18 carbon atoms). After 30 min at room temperature, the reaction mixture was analyzed by 5% non-denaturing PAGE and autoradiography, a standard method form determining complex formation between TGF-β and α2M* (12). […] At 100 μM, it inhibited 20% of the complex formation between TGF ? β1 and α2M*. Esterification consistently abolished the inhibitory activities of the fatty acids.
Complex formation of ^125I-TGF-β and ? 2M*—The reaction mixture contained 10 μg of . α2M*, ˜1 nM of ^125I-TGF- ? 1, ^125I-TGF ? β2 or ^125I-TGF ? acids (dissolved in 100% ethanol) in 0.05 ml of 50 mM HEPES-NaOH buffer, pH 7.4. The final concentration of ethanol in the reaction mixture was 0.5%. These fatty acids and fatty acid derivatives were soluble under the experimental conditions. After 30 min at room temperature, the complex formation of ^125I-TGF- ? and. α2M* was determined by 5% non-denaturing polyacrylamide gel electrophoresis (PAGE) or by 7.5% SDS-PAGE following cross-linking by 0.6 mM DSS. After electrophoresis, the gel was stained with Coomassie blue and analyzed by autoradiography. The ^125I-TGF- ? - ? 2M* complex which co-migrated with free ? 2M* was quantified using a PhosphoImager (Fuji).

[2] = biological target: T2, 125I-TGF-β2-α2M* complex (Homo sapiens, UniProt P01023); assay: Dissociation of preformed 125I-TGF-β2-α2M* complex; type: binding; conditions: at 250 μM
T2 construct: was purified from pooled citrate-treate human plasma; from tissue; host or cells: pooled citrate-treated human plasma
T2 sequence (P01023 24-1474): T1 sequence (P01023 24-1474)

[3] = biological target: T3, 125I-TGF-β1-α2M* complex (Homo sapiens, UniProt P01023); assay: Dissociation of preformed 125I-TGF-β1-α2M* complex; type: binding; conditions: at 250 μM
T3 construct: was purified from pooled citrate-treate human plasma; from tissue; host or cells: pooled citrate-treated human plasma
T3 sequence (P01023 24-1474): T1 sequence (P01023 24-1474)
Description: To determine whether fatty acids are capable of dissociating TGF- ? - ? 2M* complexes, various concentrations of arachidonic acid were added to a reaction mixture containing ^125I-TGF- ? 1 or ^125I-TGF ? β3 and α2M* which had been preincubated at room temperature for 30 mi 30 minutes at room temperature, the ^125I-TGF ? β isoform-α2M* complexes in the reaction mixtures were analyzed by 5% non-denaturing PAGE. […] However, lower concentrations of arachidonic acid were effective in inhibiting complex formation of ^125I-TGF- ? 1 and α2M* than were required to dissociate the ^125I-TGF- ? 1- ? 2M* complex.

[4] = biological target: T4, TGF-β3-α2M* complex (Homo sapiens, UniProt P01023); assay: Inhibition of 125I-TGF-β3 and α2M* complex formation (5% non-denaturing PAGE); type: binding; conditions: 30% inhibition
T4 construct: was purified from pooled citrate-treate human plasma; from tissue; host or cells: pooled citrate-treated human plasma
T4 sequence (P01023 24-1474): T1 sequence (P01023 24-1474)
Description: (§1) TGF- ? isoforms bind to α2M* with different affinities: TGF ? β2>TGF ? β1 ( active sites of TGF ? β1 and TGF- ? 2 responsible for high-affinity binding to ? 2M* are disti from the low-affinity ? 2M* binding site in TGF- ? 3 (19). To determine if fatty acids differentially affect the binding of TGF- ? isoforms to ? 2M*, the effects of various concentrations of arachidonic acid and myristic acid on complex formation of ^125I-labeled TGF ? β isoforms and ? 2M were determined*. […] It inhibited 30% of the complex form . α2M* and TGF ? β2 and TGF ? β3 at 100 and >250 μM, respectively. Arachidon polyunsaturated fatty acid, was a stronger inhibitor of complex formation of ? 2M* and TGF-.β2/TGF ? β3. It inhibited 50% of the complex formation of ? 2M* and ^125I-TGF- ? 2 at 50 μM (FIG. 3A). The observation that myristic acid and arachidonic acid inhibited complex formation of ^125I-TGF- ? […] 2M* complexes in the reaction mixtures were then analyzed by 7.5% SDS-PAGE and autoradiography.
(§2) Complex formation of ^125I-TGF-β and ? […] After 30 min at room temperature, the complex formation of ^125I-TGF- ? and. α2M* was determined by 5% non-denaturing polyacrylamide gel electrophoresis (PAGE) or by 7.5% SDS-PAGE following cross-linking by 0.6 mM DSS. After electrophoresis, the gel was stained with Coomassie blue and analyzed by autoradiography. […] 2M* was quantified using a PhosphoImager (Fuji).

[5] = biological target: T5, TGF-β2-α2M* complex (Homo sapiens, UniProt P01023); assay: Inhibition of 125I-TGF-β2 and α2M* complex formation (5% non-denaturing PAGE); type: binding; conditions: 30% inhibition
T5 construct: was purified from pooled citrate-treate human plasma; from tissue; host or cells: pooled citrate-treated human plasma
T5 sequence (P01023 24-1474): T1 sequence (P01023 24-1474)
Description: as §1, §2

[6] = test system: Mv1Lu cells; assay: [Methyl-3H]-thymidine incorporation assay, TGF-β2-induced growth inhibition; type: cell-based, mink; conditions: 1 pM, absence of α2M*
From the text: The levels of TGF ? β and ? 2M* also increase dramatically. α2M* is capable of inhibiting TGF- ? activity by forming complexes with TGF- ? and thus preventing it from binding to TGF ? β receptors in cells involved. Fatty acids may potentiate TGF ? β activity by blocking complex formation of ? 2M* and TGF ? β under these conditions. To test this possibility, we determined the effects of arachidonic acid on ^125I-TGF- ? 2 binding (in the presence and absence of α2M*) to Mv1Lu cells. ? 2M* is known to inhibit TGF- ? 2 more strongly than TGF ? β1 binding to T receptors in cells (13). Various concentrations of ^125I-TGF- ? 2 were preincubated with 200 μg/ml of ? 2M* in the presence or absence of 30 μM arachidonic acid for 30 min prior to the performance of binding assays in Mv1Lu cells. […] The residual ^125I-TGF- ? binding associated with the cells after ? 2M* inhibition was mainly due to non-specific binding of ^125I-TGF- ? 2. […] In the presence of 200 μg/ml of ? 2M*, the dose-response curve of TGF ? β2 shifted to the right. […] Addition of arachidonic acid at 0.5 and 1 μM reversed the inhibitory effect of. α2M* on TGF- ? 2-induced growth inhibition as measured by [methyl-^3H]-thymidine incorporation.
[Methyl-^3H]-Thymidine Incorporation Assay—Mv1Lu cells were plated at a cell density of 7.5×10^4 cells/well in DMEM containing 0.1% fetal calf serum in 48-well cluster dishes. After 4 hr at 37° C. (to allow cell adherence), cells were treated with various concentrations of TGF- ? 2,2M* (0 or 200 μg/ml) and arachidonic acid ([…] or 1 μM). After 1h at 37° C., cells were pulsed with 1 μCi/ml [methyl-^3H]-thymidine for 2 hr. The [methyl-^3H]-th incorporation into cellular DNA was carried out in triplicate as described previously (23).

With `CCCCCCCCCCCCCC(=O)O` [myristic acid] the IC50 [1] was 9.1 µM, the “dissociation of the 125I-TGF-β2-α2M* complex” value [2] was “inactive” and the “dissociation of the 125I-TGF-β1-α2M* complex” value [3] was “inactive”. The “concentration that inhibited 30% of the complex formation of α2M* and TGF-β3” value [4] was greater than 250 µM and the “concentration that inhibited 30% of the complex formation of α2M* and TGF-β2” value [5] was 100 µM.

For `CCCCCC=CCC=CCC=CCC#CCCCC(=O)O` [ETYA, 8, 11, 14 eicosatrien-5-ynoic acid], the IC50 [1] was 30 µM.

`CCCCCC/C=C\CCCCCCCC(=O)O` [palmitoleic acid] was tested, and the “activity compared with saturated counterparts of identical chain length” value [1] was “weaker than their saturated counterparts”.

`CC/C=C\C/C=C\C/C=C\CCCCCCCC(=O)O` [linolenic acid] was tested, and the IC50 [1] was 26 ± 3.1 µM.

With `CCCCCCCCCCCCCCCCCC(=O)O` [stearic acid] the IC50 [1] was 6.6 ± 0.9 µM.

Molecule `CCCCCCCC/C=C\CCCCCCCC(=O)O` [oleic acid] has an IC50 [1] of 5.2 ± 2 µM.

For `CCCCCCCCCCCCCCCC(=O)O` [palmitic acid], the IC50 [1] was 8.5 ± 1 µM.

Molecule `CCCCC/C=C\C/C=C\C/C=C\CCCCC(=O)O` [γ-linolenic acid] has an IC50 [1] of 8 ± 2 µM.

With `CCCCCCCCCCCC(=O)O` [lauric acid] the IC50 [1] was 68 µM.

In the case of `CCCCCCCC(=O)O` [n-caprylic acid], the “inhibitory activity on complex formation of 125I-TGF-β1 and α2M*” value [1] is reported as “relatively weak inhibitor” and the “inhibition of the complex formation between TGF-β1 and α2M*” value ([1]; at 100 μM) is reported as 20%.

With `CCCCC/C=C\C/C=C\C/C=C\C/C=C\CCCC(=O)OC` [arachidonic acid methyl ester] the “inhibitory activity on complex formation of 125I-TGF-β1 and α2M*” value [1] was “inactive”.

B1: TGF-β2: transforming growth factor β isoform 2, 25-kDa dimeric protein (protein, UniProt P61812 303-414, looked up)
Transforming growth factor …: ALDAAYCFRNVQDNCCLRPLYIDFKRDLGWKWIHEPKGYNANFCAGACPYLWSSDTQHSRVLSLYNTINPEASASPCCVSQDLEPLTILYYIGKTPKIEQLSNMIVKSCKCS
For B1, the “inhibition of [methyl-3H]-thymidine incorporation into DNA” value [6] was “approximately 25%”.
